Row | Structure (SMILES) | melting point [°C]
1 | CCOC(=O)CCNC(=O)CN1CC(=O)N(C)c2ccc(NC(=O)NCc3ccccc3)cc2C1=O | 100 to 102
2 | COc1ccccc1CCc1ccccc1C(=O)O | 118 to 119
3 | O=C(CCl)OCN1C(=O)CN(CCN2CC(=O)N(COC(=O)CCl)C(=O)C2)CC1=O | 132 to 134
4 | CC(C)(C)OC(=O)N1CCC(c2ccc3oc(-c4ccc(C(F)(F)F)cc4)nc3c2)CC1 | 161 to 164
5 | CCNC(=O)NC1CCCc2sccc21 (stereo unspecified) | 184 to 188
6 | CC(=O)NCCn1ccc(=O)c(OCc2ccccc2)c1C(O)c1ccccc1 (stereo unspecified) | 180 to 182
7 | c1ccc(CNn2cccc2)cc1 | 39 to 41
8 | O=C(O)c1ccccc1-c1ccc(Cc2nc(-c3ccccc3)nc3ccccc23)cc1 | 210
9 | COCOc1ccc(C=O)c(Oc2ncc(C(F)(F)F)cc2Cl)c1 | 93.9 to 94
10 | COCCOc1cc(C)c(O)c2ccccc12 | 100 to 101
11 | O=C1CC2(C(=O)N1)C(=O)N(Cc1ccc(Br)cc1)c1ccccc12 (stereo unspecified) | 218 to 220
12 | Cc1oc(-c2ccccc2)nc1COc1ccc(CCCCC2OC(=O)NC2=O)cc1 (stereo unspecified) | 186 to 187
13 | N[C@H]1CCN(c2cc3c(cc2F)c(=O)c(C(=O)O)cn3-c2c[nH]nn2)C1 | 300
14 | CCCCc1cc(C(=O)OC)c(N)s1 | 62 to 63
15 | O=S(=O)(c1cccc2ccccc12)c1n[nH]c2ccc(OC3CCCNC3)cc12 (stereo unspecified) | 178 to 180
16 | O=C/C=C/c1ccc(C(F)(F)F)cc1 | 60 to 61
17 | O=C(CBr)Nc1coc2ccccc2c1=O | 198
18 | O=C(CBr)Nc1ccc([N+](=O)[O-])cc1 | 175 to 178
19 | Cc1ncc(CN2CC=C(c3ccccc3)CC2)c(N)n1 | 165 to 166
20 | O=C(O)C1CCc2onc(-c3ccc(Cl)cc3)c2C1 (stereo unspecified) | 203 to 205
21 | Nc1nc2ccc(S(=O)(=O)n3c(CCC(=O)O)cc4nc(Cl)ccc43)cc2s1 | > 260
22 | CC(=O)N1CCC(O)(c2ccccc2C)CC1 | 145 to 146
23 | N#CN1CCc2cccc(Cl)c2CC1 | 81 to 82
24 | CC(COc1ccc(O)c(C(N)=O)c1)NCC(O)c1ccccn1 (stereo unspecified) | 147 to 165
25 | CCc1cc(CC)n2ncc(Br)c2n1 | 64 to 65
26 | ON=C1c2ccccc2CSc2ccccc21 | 241 to 243

Row | Structure (SMILES) | melting point [°C]
27 | CCOC(=O)CNc1ccc(Cl)c(Cl)c1 | 103 to 104
28 | COc1ccc(-c2cc(O)nc(C)n2)cc1 | 270 to 272
29 | COc1cccc(OC)c1C(=O)NC(=O)Nc1ccc(-c2ccc(Cl)cc2)cn1 | 205 to 215
30 | CCCc1cc(NC(=O)N2CCN(c3cc(F)cc(F)c3)CC2)c(OC)nc1C | 121 to 123
31 | O=C(NCc1cocn1)c1ccnc(N2CCN(Cc3ccc(F)cc3)C2=O)c1 | 197 to 199
32 | Cc1oc(-c2ccco2)nc1COc1ccc(Cn2cc(CCC(=O)O)c(-c3ccccc3)c2)cc1 | 86 to 87
33 | COc1cccc(CN2Cc3cc(OC)c(O)cc3C(O)C2)c1 (stereo unspecified) | 137 to 138
34 | Cc1nc2n(c(=O)c1CCN1CCC(C(=O)c3ccc(F)cc3)CC1)CCCS2 | 165
35 | CCOC(=O)C(=O)Nc1ccc(NC(=O)C(=O)OCC)nc1 | 178 to 180
36 | Cc1cnc(CNC(=O)c2ccnc(N3CCN(Cc4ccc(F)cc4)C3=O)c2)cn1 | 169 to 171
37 | CC(C)CCN1C(=O)C(NC(=O)Nc2cccc(N(C)C)c2)C(=O)N(CC23CC4CC(CC(C4)C2)C3)c2ccccc21 (stereo unspecified) | 226 to 227
38 | CCCc1c2c(c(OC)c3c(=O)cc(C(=O)O)oc13)CCCC2 | 228 to 229
39 | O=C(O)c1ccc(C(=O)N2Cc3cccn3Cc3ccccc32)cc1 | 210 to 214
40 | CC(C)(C)c1cc(C(=O)COc2ccc(Cl)cc2Oc2ccc(Cl)cc2Cl)cc(C(C)(C)C)c1O | 111 to 114
41 | CCC12CCC3C4CCC(=O)C=C4CCC3C1CCC2(O)C(C)O (stereo unspecified) | 159 to 164
42 | CCCCCCCCCCCCCCCCCC(=O)NCC(O)C(C)(O)CCCC(C)CCCC(C)CCCC(C)C (stereo unspecified) | 47 to 48
43 | CC(C)(C)OC(=O)NCCCCC(=O)Nc1cc(C(=O)O)ccc1Cl | 203
44 | CN1c2ccc(Cl)cc2C(c2ccccc2Br)=Nc2cccnc21 | 121 to 123
45 | CCCn1nc(OCc2ccc3ccccc3n2)cc1COc1c(CC)cccc1CC(=O)O | 118 to 119
46 | COc1ccc(CN2CCC(c3cc(-c4ccc(Cl)cc4)[nH]n3)CC2)cc1 | 166 to 168
47 | C=CCC(CC=C)(CC=C)c1ccc(-c2nc3cc(C#N)c(C#N)cc3[nH]2)cc1 | 264 to 266
48 | COCOc1cc(Cl)ccc1-c1cc(-c2cccc([N+](=O)[O-])c2)c(C#N)c(N)n1 | 196 to 198
49 | O=C(NCC12CC3CC(CC(C3)C1)C2)c1cc([N+](=O)[O-])ccc1Cl | 178
50 | COC(=O)c1cn(Cc2ccccc2)c2ccc(C3CCCCC3)cc2c1=O | 211 to 213
51 | CN1CC(CN(CCC#N)C(N)=O)CC2c3cccc4[nH]cc(c34)CC21 (stereo unspecified) | 252 to 254
52 | CCS(=O)(=O)c1ccc(Oc2ccc3c(c2)OCO3)nc1 | 97 to 99

Row | Structure (SMILES) | melting point [°C]
53 | COc1ccc(COc2cccc(C#CC(=O)c3ccccc3)c2)cc1 | 79 to 80
54 | COc1c(C)nc2sc(Cl)cn2c1=O | 138 to 141
55 | CN(C)CCCOc1ccc(-c2nnc(CSCCOc3ccccc3)n2Cc2ccccc2)cc1 | 88 to 92
56 | CCOC(=O)c1c(COc2cccc(C)n2)nc2cc(OC)c(OC)cc2c1-c1ccc(OC)c(OC)c1 | 173 to 174
57 | CCC1c2ccccc2-c2cc(-c3cccc(O)c3)ccc2N1S(=O)(=O)c1ccc(O)cc1 (stereo unspecified) | 105
58 | O=c1cc(-c2ccccc2)oc2cc(OCCn3ccnc3)ccc12 | 155 to 159
59 | C=CCOc1ccc(-c2cc(=O)c3c(O)cc(OCOC)cc3o2)cc1 | 100 to 101
60 | COc1ccc(C(=O)N2C(=O)CCC2CCC(=O)OCc2ccccc2)cc1OCc1ccccc1 (stereo unspecified) | 92 to 95
61 | CCOC(=O)c1nc(CC)[nH]c1C(=O)OCC | 83 to 84
62 | CC(O)Cc1cc2c(cc1C(=NNc1ncccn1)c1ccc([N+](=O)[O-])cc1)OCO2 (stereo unspecified) | 125 to 127
63 | CC(C)(C)CNc1cc(Cl)nc(NCC(C)(C)C)n1 | 95 to 98
64 | CC(=O)CC(=O)Nc1ccc(C)cc1C | 89
65 | O=[N+]([O-])c1ccc2c(c1)OP(=O)(N(CCCl)CCCl)NC2 (stereo unspecified) | 123 to 126
66 | CC1=C2CCc3cc(C)ccc3N2CCC1=O | 143 to 145
67 | CC(=O)CC(=O)OCCCN1C(=O)c2ccccc2C1=O | 67 to 71
68 | O=C1Nc2ccc(Cl)cc2C1c1ncnc2nn(C3CCCCC3)cc12 (stereo unspecified) | 294 to 298
69 | COc1nc(C)cnc1NS(=O)(=O)c1ccccc1-c1ccc(OC(C)C(=O)O)cc1 (stereo unspecified) | 188 to 190
70 | O=C(O)c1cc2c3ccccc3[nH]c(=S)n2n1 | 272 to 273
71 | CCOC(=O)c1cccc(Cn2cnc3cnccc32)c1 | 119 to 120
72 | COC(=O)C1=C(O)c2sc3ccccc3c2S(=O)(=O)N1Cc1ccc(OC)cc1 | 163 to 164
73 | CN1C(=NCCCCn2ccnc2)c2cccc3cccc1c23 | 126 to 127
74 | CCCCCCCCCCCCCCCCCCCC(=O)Nc1ccn(C2OC(CO)C(O)C2O)c(=O)n1 (stereo unspecified) | 138 to 142
75 | O=C(O)c1cnc2c3ccccc3ncn2c1=O | > 270
76 | Cc1ccc(COc2ccn(Cc3ccccc3)c(=O)c2Br)cc1 | 149 to 150
77 | COc1cc(C(=O)CBr)ccc1OCC(F)(F)F | 120
78 | COc1ccc(-c2c3c(cc4ccc(OCc5ccccc5)cc24)C(=O)NC3=O)cc1 | 208 to 210

Row | Structure (SMILES) | melting point [°C]
79 | Nc1nc2cc(CO)ccc2n1Cc1cccc2cccnc12 | > 260
80 | O=C(O)c1cc(-c2ccc(Br)cc2)c(=O)n(Cc2ccc(Cl)cc2Cl)c1 | 137 to 139
81 | O=C1Nc2ccc(Cl)cc2C(C#Cc2ccccc2)(C(F)(F)Cl)O1 (racemic) | 154 to 155
82 | CCCc1c(OCCCOc2ccc3c(c2CCC)OC(CCC#N)CC3)ccc(C(C)=O)c1O (stereo unspecified) | 89 to 89.5
83 | CC(=O)Nc1cc(C)c(N)c(C)c1 | 148
84 | Cc1nc(-c2cn(Cc3ccc(C(F)(F)F)cc3)nn2)sc1C(=O)NCc1ccccc1 | 131 to 132
85 | Cn1ncnc1COc1nn2c(-c3ccccc3F)nncc2c1C(C)(C)C | 128
86 | O=C(O)C(CC1CCCC1)c1ccc(-c2ccncc2)cc1 (stereo unspecified) | 118 to 121
87 | COc1ccc(P(=O)(c2ccccc2)c2ccccc2)cc1OC | 154 to 156
88 | CC(C)(C)c1cc(CCCCCCc2cc(C(C)(C)C)c(O)c(C(C)(C)C)c2)cc(C(C)(C)C)c1O | 147 to 149
89 | C=CCn1c(C)nc2c3c(c(C(=O)OC)cc21)C(=O)CC1(Cc2ccccc2C1)N3 | 216 to 217
90 | N#Cc1ccc(NC2CCN(Cc3ccc(C(F)(F)F)cc3)CC2)nn1 | 243
91 | Cc1cccc(-c2[nH]c(C(C)C)nc2-c2cccc(-c3ccc(S(N)(=O)=O)cc3F)c2)n1 | 246 to 248
92 | CCOC(=O)c1ncn2c1CN(Cc1ccc(OC)cc1OC)C(=O)c1c(Cl)cccc1-2 | 129 to 130
93 | CN1CCN(C(=O)c2cccc3cc[nH]c23)CC1 | 176 to 178
94 | CCCNCC1Cc2cc(F)cc(-c3c(Cl)cccc3Cl)c2O1 (stereo unspecified) | > 250
95 | CC(C)(C)NS(=O)(=O)c1cc([N+](=O)[O-])ccc1Cl | 168 to 171
96 | CCC1(c2ccccc2)Cc2cc(OCC(=O)O)c(Cl)c(Cl)c2C1=O (stereo unspecified) | 187 to 189
97 | CN(C)C=Nc1c(Cl)cc(N=Cc2cccc(Br)c2)cc1Cl | 136 to 138
98 | N=C(N)NCCCOc1ccc2c(c1)CC(CCC(=O)O)C(=O)N2 (stereo unspecified) | 168 to 172
99 | Cc1cc2nn(C)c(=O)n2nc1-c1cccc(N)c1 | 192 to 195
100 | N#CC1CN1C(=O)CNC(=O)c1ccccc1 (stereo unspecified) | 78 to 81
101 | CCOc1ccc(CC2SC(=N)NC2=O)cc1OCC (stereo unspecified) | 171 to 172

Source: a melting point compilation (Tetko et al.; mined from patent text by program, amines drawn as free bases though some values may be those of a salt)
